Assay results taken from PMC3062156, “Biochanin A, a Phytoestrogenic Isoflavone with Selective Inhibition of Phosphodiesterase 4, Suppresses Ovalbumin-Induced Airway Hyperresponsiveness” (Evidence-based Complementary and Alternative Medicine : eCAM, 2011).

Target: T1, phosphodiesterase 4 (PDE4), high-affinity rolipram binding sites (PDE4H)
T1 construct: native PDE4 in particulate (cell membrane) portion of guinea pig whole brain; subtype not specified
Experiment: [3H]-rolipram radioligand displacement on guinea pig brain membranes; weak, […] displacement at […]
Design: species or system Cavia porcellus
Conditions: read-out: EC50 (the source's name)

COc1ccc(-c2coc3cc(O)cc(O)c3c2=O)cc1 [Biochanin A]
IC50: > 300 µM
